Experimental data from ChEMBL document CHEMBL1201862, “PubChem BioAssay data set” (2004).
Values joined by “and” are separate entries in the source; they are usually repeats but may differ in a detail not shown here. Equal entries are not always repeated.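 Growth conditions: 96-well plates. Treatment: test compound, 48 hours, 5 concentrations. Analysis: linear interpolation between bracketing concentrations; unreached endpoints set to highest concentration. GI50 marks 50% less growth.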 Active and inactive are the calls of the source. Cut-off read from the data, not from the text of the source: active = GI50 up to about 1.1 µM and inactive = higher.

Columns and labels:
Experiment in all cases: NCI-60 cell line screen, 48 h
[1] = test system: A498
[2] = test system: COLO 205
[3] = test system: HCT-116
[4] = test system: HCT-15
[5] = test system: HT-29
[6] = test system: LOX IMVI
[7] = test system: Malme-3M
[8] = test system: NCI-H522
[9] = test system: OVCAR-8
[10] = test system: RPMI-8226
[11] = test system: SN12C
[12] = test system: SNB-78
[13] = test system: SR
[14] = test system: SW-620
[15] = test system: UACC-257
[16] = test system: UACC-62
[17] = test system: UO-31
[18] = test system: SK-MEL-28
[19] = test system: MDA-MB-231
[20] = test system: T47D

SMILES	GI50 [1]	GI50 [2]	GI50 [3]	GI50 [4]	GI50 [5]	GI50 [6]	GI50 [7]	GI50 [8]	GI50 [9]	GI50 [10]	GI50 [11]	GI50 [12]	GI50 [13]	GI50 [14]	GI50 [15]	GI50 [16]	GI50 [17]	GI50 [18]	GI50 [19]	GI50 [20]
Nc1ccc(C(=O)O)c2[nH]c3ccccc3c(=O)c12	> 100 µM (inactive)	> 100 µM (inactive)	> 100 µM (inactive)	> 100 µM	> 100 µM (inactive)	> 100 µM (inactive)	> 100 µM (inactive)	> 100 µM (inactive)	> 100 µM (inactive)	> 100 µM (inactive)	> 100 µM (inactive)	> 100 µM (inactive)	> 100 µM (inactive)	> 100 µM (inactive)	> 100 µM (inactive)	> 100 µM (inactive)	> 100 µM (inactive)	–	–	–
CCOC(=O)c1cnc2[nH]c(=O)c3ccccc3n2c1=O	–	> 100 µM (inactive)	> 100 µM (inactive)	> 100 µM	> 100 µM (inactive)	> 100 µM (inactive)	> 100 µM (inactive)	> 100 µM (inactive)	> 100 µM (inactive)	> 100 µM (inactive)	> 100 µM (inactive)	> 100 µM (inactive)	> 100 µM (inactive)	> 100 µM (inactive)	> 100 µM (inactive)	> 100 µM (inactive)	> 100 µM (inactive)	> 100 µM (inactive)	–	–
CC(=O)O[C@H]1CC[C@@]2(C)C(=CC[C@@H]3C2CC[C@]2(C)C(=O)NC(=O)CC32)C1 (some centres not stated)	> 100 µM (inactive)	> 100 µM (inactive)	> 100 µM (inactive)	68.4 µM	97.5 µM (inactive)	40.3 µM (inactive)	> 100 µM (inactive)	27.9 µM (inactive)	> 100 µM (inactive)	–	> 100 µM (inactive)	> 100 µM (inactive)	–	> 56.6 µM (inactive)	> 100 µM (inactive)	> 100 µM (inactive)	> 100 µM (inactive)	53.5 µM (inactive)	–	–
O=C1c2ccccc2N2OC3(N4CCCC4)CCCC3C12c1ccccc1 (configuration not stated)	> 100 µM (inactive)	> 100 µM (inactive)	73.3 µM (inactive)	> 100 µM	> 100 µM (inactive)	–	> 100 µM (inactive)	> 100 µM (inactive)	> 100 µM (inactive)	62.8 µM (inactive)	> 100 µM (inactive)	> 100 µM (inactive)	59.4 µM (inactive)	> 100 µM (inactive)	71.6 µM (inactive)	74.3 µM (inactive)	> 100 µM (inactive)	> 100 µM (inactive)	–	–
CN(c1nc(=[N+](C)C)ss1)C1CCCCC1	> 100 µM (inactive)	–	> 100 µM (inactive)	> 100 µM	> 100 µM (inactive)	> 100 µM (inactive)	> 100 µM (inactive)	> 100 µM (inactive)	> 100 µM (inactive)	62.1 µM (inactive)	> 100 µM (inactive)	> 100 µM (inactive)	> 100 µM (inactive)	> 100 µM (inactive)	> 100 µM (inactive)	19.4 µM (inactive)	> 100 µM (inactive)	> 100 µM (inactive)	–	–
O=S(O)CCCCSSCC(O)C(O)CSSCCCCS(=O)O (configuration not stated)	64.3 µM (inactive) and 61.9 µM (inactive)	18.5 µM (inactive) and 14.6 µM (inactive)	–	30.5 µM and 29.6 µM	13.5 µM (inactive) and 9.16 µM (inactive)	15.4 µM (inactive) and 10.8 µM (inactive)	7.08 µM (inactive) and 7.24 µM (inactive)	–	30.1 µM (inactive) and 22.2 µM (inactive)	13.5 µM (inactive) and 11.8 µM (inactive)	40.5 µM (inactive) and 34.9 µM (inactive)	18.2 µM (inactive) and 20.9 µM (inactive)	–	21.5 µM (inactive) and 19.5 µM (inactive)	8.39 µM (inactive) and 4.7 µM (inactive)	12.9 µM (inactive) and 8.73 µM (inactive)	16.7 µM (inactive) and 9.33 µM (inactive)	21.6 µM (inactive) and 14.9 µM (inactive)	–	–
COc1ccc2nc3cc(Cl)ccc3c(Sc3ccc([N+](=O)[O-])cc3C)c2c1	> 100 µM (inactive)	4.06 µM (inactive)	> 100 µM (inactive)	> 100 µM	–	> 100 µM (inactive)	> 100 µM (inactive)	> 100 µM (inactive)	> 100 µM (inactive)	–	74.3 µM (inactive)	> 100 µM (inactive)	> 100 µM (inactive)	> 100 µM (inactive)	> 100 µM (inactive)	> 100 µM (inactive)	> 100 µM (inactive)	> 100 µM (inactive)	–	–
C=CCCCCCC(O)C(O)C/C=C\C/C=C\CC (configuration not stated)	–	> 18.8 µM (inactive)	> 18.8 µM (inactive)	> 18.8 µM	> 18.8 µM (inactive)	> 15.4 µM (inactive)	> 18.8 µM (inactive)	> 18.8 µM (inactive)	> 18.8 µM (inactive)	> 18.8 µM (inactive)	> 18.8 µM (inactive)	> 18.8 µM (inactive)	> 9.66 µM (inactive)	> 18.8 µM (inactive)	> 18.8 µM (inactive)	> 18.8 µM (inactive)	> 18.8 µM (inactive)	> 18.8 µM (inactive)	–	–
CCCCCC(CN1CCOCC1)C(=O)/C=C/c1ccccc1 (configuration not stated)	–	3.77 µM (inactive)	1.75 µM (inactive)	2.03 µM	2.67 µM (inactive)	1.37 µM (inactive)	2.1 µM (inactive)	–	–	2.11 µM (inactive)	2.94 µM (inactive)	6.9 µM (inactive)	1.95 µM (inactive)	1.74 µM (inactive)	2.96 µM (inactive)	1.46 µM (inactive)	6.61 µM (inactive)	5.82 µM (inactive)	–	–
Clc1cc2n[se]nc2cc1Cl	> 100 µM (inactive)	–	> 100 µM (inactive)	> 100 µM	> 100 µM (inactive)	> 100 µM (inactive)	> 100 µM (inactive)	–	> 100 µM (inactive)	> 100 µM (inactive)	> 100 µM (inactive)	> 100 µM (inactive)	> 100 µM (inactive)	> 100 µM (inactive)	> 100 µM (inactive)	> 100 µM (inactive)	> 100 µM (inactive)	> 100 µM (inactive)	–	–
[N-]=[N+]=NC1C(Cl)C(=O)NC(=O)N1[C@H]1C[C@H](O)[C@@H](CO)O1 (some centres not stated)	> 100 µM (inactive)	> 100 µM (inactive)	–	–	> 100 µM (inactive)	> 100 µM (inactive)	13.3 µM (inactive)	–	> 100 µM (inactive)	–	> 100 µM (inactive)	> 100 µM (inactive)	–	> 100 µM (inactive)	> 100 µM (inactive)	> 100 µM (inactive)	> 100 µM (inactive)	> 100 µM (inactive)	–	–
CC1=C(C(=O)Nc2c(C)cccc2C)C(c2ccc3c(c2)OCO3)C(C(=O)Nc2c(C)cccc2C)=C(C)N1	–	21.9 µM (inactive)	14.3 µM (inactive)	–	16.2 µM (inactive)	13.7 µM (inactive)	20.2 µM (inactive)	14.9 µM (inactive)	18.1 µM (inactive)	–	16.7 µM (inactive)	17.6 µM (inactive)	22.5 µM (inactive)	18.2 µM (inactive)	16.6 µM (inactive)	2.7 µM (inactive)	16.9 µM (inactive)	22.2 µM (inactive)	–	–
COC(=O)C(C(=O)C(=O)Nc1ccc([N+](=O)[O-])cc1)c1nc2ccc([N+](=O)[O-])cc2nc1O (configuration not stated)	> 100 µM (inactive)	> 100 µM (inactive)	> 100 µM (inactive)	> 100 µM	> 100 µM (inactive)	> 100 µM (inactive)	> 100 µM (inactive)	14.1 µM (inactive)	> 100 µM (inactive)	–	> 100 µM (inactive)	> 100 µM (inactive)	> 100 µM (inactive)	> 100 µM (inactive)	> 100 µM (inactive)	63.1 µM (inactive)	> 100 µM (inactive)	> 100 µM (inactive)	–	–
CCN(CC)CCCCC1CCN(CC(=O)N2c3ccccc3NC(=O)c3ccccc32)CC1	> 100 µM (inactive)	> 100 µM (inactive)	> 100 µM (inactive)	–	46.7 µM (inactive)	–	81.5 µM (inactive)	> 100 µM (inactive)	> 100 µM (inactive)	> 100 µM (inactive)	> 100 µM (inactive)	> 100 µM (inactive)	> 100 µM (inactive)	> 100 µM (inactive)	48.1 µM (inactive)	> 100 µM (inactive)	> 100 µM (inactive)	> 100 µM (inactive)	–	–
O=C(CC(c1ccccc1)C1C(=O)NC(=S)NC1=O)c1ccc([N+](=O)[O-])cc1 (configuration not stated)	> 100 µM (inactive)	> 100 µM (inactive)	76.6 µM (inactive)	> 100 µM	> 100 µM (inactive)	63.4 µM (inactive)	> 100 µM (inactive)	> 100 µM (inactive)	> 100 µM (inactive)	45.9 µM (inactive)	> 100 µM (inactive)	–	41.1 µM (inactive)	> 100 µM (inactive)	> 100 µM (inactive)	> 100 µM (inactive)	> 100 µM (inactive)	> 100 µM (inactive)	> 100 µM (inactive)	17.8 µM (inactive)
CSc1c(C#N)c(N)nc2c(/N=N\c3ccc(Cl)cc3)c(N)nn12	39.2 µM (inactive)	13.5 µM (inactive)	7.87 µM (inactive)	2.26 µM	3.34 µM (inactive)	1.52 µM (inactive)	6.08 µM (inactive)	6.19 µM (inactive)	2.08 µM (inactive)	2.6 µM (inactive)	3.17 µM (inactive)	–	2.55 µM (inactive)	2.16 µM (inactive)	3.27 µM (inactive)	3.33 µM (inactive)	2.13 µM (inactive)	2.58 µM (inactive)	2.04 µM (inactive)	1.67 µM (inactive)
